# Non-standard residues stand in square brackets, D forms with d. Residues, ends and D or L forms follow the SMILES beside them.
# Assays:
# [1] = In vitro proteolysis assay in rat serum; assay type: in vitro ADME
# Procedure: Proteolysis was stopped by adding 800 μl of ice-cold stop buffer (potassium-phosphate buffer, acidified to pH 0.8 with trifluoroacetic acid (TFA) and boiling 5 min (rat serum only). After centrifugation (12000 g, 5 min, 4° C.) (rat serum only), serum-peptide mixtures were passed through a conditioned Sep-Pak C-18 cartridge to extract native GHRH or a GHRH analog residual concentrations from serum proteins. The native GHRH or the analog was eluted in 2 ml of 50% acetonitrile-0.01% TFA/50% 0.01% aqueous TFA. 200 μl of extracted peptide, representing 1 μg of GHRH or analog at time 0, was quantified by analytical HPLC, using one μ-Bondapak C18 column (10 μm particle size, 0.39×15 cm) (rat serum) or two C18 columns in series (human serum and plasma) and a binary solvent system composed of NaClO4 0.01 M, pH 2.5 and acetonitrile. A linear gradient from 30 to 60% acetonitrile over 45 min (rat serum) or 30 to 50% (human serum and plasma) was used. Elution of intact peptide was monitored at 214 nm and residual concentration determined by assessment of peak surface areas.
# [2] = in vivo; settings: Beagle, dog
# Procedure: No mortality, adverse clinical sign, effects on body weight, food consumption, opthalmology, haematology, coagulation, clinical chemistry, urinalysis or organ weights were noted following the dosing or recovery periods. Microscopic findings at the injection sites were noted among treated animals, however, the changes were reversed following the recovery period. A no adverse effect level for this study was determined to be 3 mg/kg.
# [3] = test system: antibodies to the GHRH(1-29)NH2 synthetic analog; assay: Phase I/II study: human anti-GHRH antibodies ELISA; assay type: in vivo; settings: Day 30 sample, at the dilution tested
# Procedure: On Day 30, an ambulatory control visit took place. Clinical assessments were performed and adverse events were reported. A blood sample was taken to determine the presence of antibodies the GHRH(1-29)NH2 synthetic analog.
# Once the volunteers were considered eligible, they were hospitalized for a period of 5 consecutive days. On Day 0 of admission successive samples of blood were taken to perform the basal secretion profile of GH during 24 hours. During 5-day hospitalization period, after the initial blood sampling to determine fasting glucose level, the appropriate dose of the GHRH(1-29)NH2 synthetic analog or placebo was administered and multiple samplings were performed to assess the profile of GH, postprandial glucose level and electrocardiogram after 60 minutes of the application of the GHRH(1-29)NH2 synthetic analog/placebo. Eight hours after drug administration, samples were obtained to determine IGF-1 level, thyroid hormones and routine analysis. After 30 days of admission, all the volunteers returned for new clinical evaluation to record any adverse events that could have occurred from the last day of hospitalization period and to take a blood sample for later determination of anti-GHRH(1-29)NH2 synthetic analog antibodies.
# Human anti-GHRH antibodies were measured in ELISA developed LAB Pre-Clinical Research Intl.
# [4] = test system: malnourished subjects with CKD; assay: Phase II CKD: DEXA scan; assay type: in vivo, human
# Procedure: The DEXA scan was performed by an appropriately qualified person and in accordance with the agreed guidelines. Mean body composition values (fat free mass, fat mass and bone mineral content) were recorded for the total body and for defined regional areas (arms, legs, trunk), if possible.
# Mean body composition values (total tissue, fat mass, lean tissue and bone mineral content) were recorded for the total body and defined regional areas (arms, legs, trunk) if possible. FFM was derived for total body and for regional areas.
# [5] = test system: malnourished subjects with CKD; assay: Phase II CKD: abnormal findings on physical examination; assay type: in vivo, human; settings: safety analysis set
# Text: There were no body systems in which there was a trend towards change in physical examination. Any physical examination findings after the screening visit were reported as AEs.
# [6] = test system: malnourished subjects with CKD; assay: Phase II CKD: adverse events; assay type: in vivo, human; settings: 28 days
# Text: The number and nature of AEs was consistent with subjects with chronic renal failure. Although the number of AEs reported by subjects in the GHRH(1-29)NH2 synthetic analog group was higher than the number reported by subjects in the placebo group (70 vs. 58), there was no clear pattern to distinguish the treatments from each other in safety terms. This might be partly due to the relatively low number of subjects in the study but, overall, the 2 groups were generally balanced with respect to the nature and incidence of AEs.
smiles,measurement,setting,value
"CC[C@H](C)[C@H](NC(=O)[C@H](C)NC(=O)[C@H](CC(=O)O)NC(=O)[C@@H](C)NC(=O)[C@@H](N)Cc1ccc(O)cc1)C(=O)N[C@@H](Cc1ccccc1)C(=O)N[C@H](C(=O)N[C@@H](CC(N)=O)C(=O)N[C@@H](CO)C(=O)N[C@H](Cc1ccc(O)cc1)C(=O)N[C@@H](CCCNC(=N)N)C(=O)N[C@@H](CCCCN)C(=O)N[C@H](C(=O)N[C@@H](CC(C)C)C(=O)N[C@H](C)C(=O)N[C@@H](CCC(N)=O)C(=O)N[C@@H](CC(C)C)C(=O)N[C@@H](CO)C(=O)N[C@@H](C)C(=O)N[C@@H](CCCNC(=N)N)C(=O)N[C@@H](CCCCN)C(=O)N[C@@H](CCCCN)C(=O)N[C@@H](CC(C)C)C(=O)N[C@@H](CCC(N)=O)C(=O)N[C@@H](CC(=O)O)C(=O)N[C@H](C(=O)N[C@@H](CCSC)C(=O)N[C@@H](CO)C(=O)N[C@@H](CCCNC(=N)N)C(N)=O)[C@@H](C)CC)C(C)C)[C@@H](C)O [GHRH analog #5, [D-Ala^2, D-Tyr^10, D-Ala^15, Lys^22] hGHRH(1-29)-NH2] (H-Y[dA]DAIFTNS[dY]RKVL[dA]QLSARKKLQDIMSR-NH2)",Relative resistance to proteolysis in vitro,[1]; compared to hGHRH(1-29)-NH2,3.13
same,Residual concentration (% of initial concentration),[1]; incubation 0 min,100 ± 0 % of initial concentration
same,NOAEL at 672 h,[2],3 mg/kg
same,Detectable antibodies to the GHRH(1-29)NH2 synthetic analog,[3],None of the subject samples tested had detectable antibodies
same,Mean fat mass (%) as % of the mean in placebo group,[4]; Day 28,83%
same,Mean fat mass (kg) as % of the mean in placebo group,[4]; Day 28,84%
same,Arms - bone mineral content: mean (SD),"[4]; ITT, Baseline",0.317 (0.109) kg
same,Arms - fat mass: mean (SD),"[4]; ITT, Baseline",2.22 (1.65) kg
same,Legs - bone mineral content: mean (SD),"[4]; ITT, Baseline",0.791 (0.273) kg
same,Legs - fat mass: mean (SD),"[4]; ITT, Baseline",5.26 (2.86) kg
same,Total body - bone mineral content (%): mean (SD),"[4]; ITT, Baseline",3.63 (0.68) %
same,Total body - bone mineral content (kg): mean (SD),"[4]; ITT, Baseline",2.236 (0.656) kg
same,Total body - fat free mass (%): mean (SD),"[4]; ITT, Baseline",72.11 (14.25) %
same,Total body - fat free mass (kg): mean (SD),"[4]; ITT, Baseline",43.83 (10.90) kg
same,Total body - fat mass (%): mean (SD),"[4]; ITT, Baseline",27.89 (14.25) %
same,Total body - fat mass (kg): mean (SD),"[4]; ITT, Baseline",17.10 (9.48) kg
same,Trunk - bone mineral content: mean (SD),"[4]; ITT, Baseline",0.699 (0.239) kg
same,Trunk - fat mass: mean (SD),"[4]; ITT, Baseline",8.52 (4.73) kg
same,Trunk - bone mineral content: mean (SD),"[4]; ITT, Baseline, listed as GHRH(1-29)NH2 synthetic analog",0.699 kg
same,Arms - bone mineral content: mean (SD),"[4]; ITT, Day 28",0.300 (0.106) kg
same,Arms - fat mass: mean (SD),"[4]; ITT, Day 28",2.01 (1.25) kg
same,Legs - bone mineral content: mean (SD),"[4]; ITT, Day 28",0.784 (0.281) kg
same,Legs - fat mass: mean (SD),"[4]; ITT, Day 28",5.31 (3.05) kg
same,Total body - bone mineral content (%): mean (SD),"[4]; ITT, Day 28",3.58 (0.69) %
same,Total body - bone mineral content (kg): mean (SD),"[4]; ITT, Day 28",2.225 (0.674) kg
same,Total body - fat free mass (%): mean (SD),"[4]; ITT, Day 28",73.16 (14.31) %
same,Total body - fat free mass (kg): mean (SD),"[4]; ITT, Day 28",44.85 (11.61) kg
same,Total body - fat mass (%): mean (SD),"[4]; ITT, Day 28",26.84 (14.31) %
same,Total body - fat mass (kg): mean (SD),"[4]; ITT, Day 28",16.51 (9.51) kg
same,Trunk - bone mineral content: mean (SD),"[4]; ITT, Day 28",0.718 (0.253) kg
same,Trunk - fat mass: mean (SD),"[4]; ITT, Day 28",8.17 (4.91) kg
same,Trunk - bone mineral content: mean (SD),"[4]; ITT, Day 28, listed as GHRH(1-29)NH2 synthetic analog",0.718 kg
same,Total body - fat free mass (kg): ratio of means; higher than placebo,"[4]; ITT, Day 28, vs placebo",2.94 kg
same,Total body - fat mass (%): ratio of means,"[4]; ITT, Day 28, vs placebo",0.83
same,Total body - fat mass (kg): ratio of means,"[4]; ITT, Day 28, vs placebo",0.84
same,Total body - fat free mass (kg): ratio of means; higher than placebo,"[4]; ITT, Day 28, vs placebo, listed as GHRH(1-29)NH2 synthetic analog",2.9 kg
same,Decrease from baseline in median FM,[4]; day 28,0.4 kg
same,FM lost on average in arms,[4]; day 28,0.22 kg
same,FM lost on average in trunk,[4]; day 28,0.30 kg
same,Increase from baseline in median FFM,[4]; day 28,1.6 kg
same,"Mean FFM gained, arms",[4]; day 28,0.15 kg
same,"Mean FFM gained, legs",[4]; day 28,1.03 kg
same,"Mean FFM gained, total body",[4]; day 28,1.83 kg
same,"Mean FFM gained, trunk",[4]; day 28,0.59 kg
same,Mean total FM lost,[4]; day 28,0.51 kg
same,Subjects with abnormal findings on physical examination: Cardiovascular (%),[5]; Baseline,(46.2%)
same,Subjects with abnormal findings on physical examination: Central nervous system (%),[5]; Baseline,(0.0%)
same,Subjects with abnormal findings on physical examination: Ear (%),[5]; Baseline,(15.4%)
same,Subjects with abnormal findings on physical examination: Gastrointestinal (%),[5]; Baseline,(30.8%)
same,Subjects with abnormal findings on physical examination: Genitourinary (%),[5]; Baseline,(23.1%)
same,Subjects with abnormal findings on physical examination: Musculoskeletal (%),[5]; Baseline,(53.8%)
same,Subjects with abnormal findings on physical examination: Nose and throat (%),[5]; Baseline,(38.5%)
same,Subjects with abnormal findings on physical examination: Other (%),[5]; Baseline,(23.1%)
same,Subjects with abnormal findings on physical examination: Respiratory (%),[5]; Baseline,(0.0%)
same,Subjects with abnormal findings on physical examination: Skin (%),[5]; Baseline,(69.2%)
same,Subjects with abnormal findings on physical examination: Cardiovascular (%),[5]; Day 28,(25.0%)
same,Subjects with abnormal findings on physical examination: Central nervous system (%),[5]; Day 28,(0.0%)
same,Subjects with abnormal findings on physical examination: Ear (%),[5]; Day 28,(16.7%)
same,Subjects with abnormal findings on physical examination: Gastrointestinal (%),[5]; Day 28,(41.7%)
same,Subjects with abnormal findings on physical examination: Genitourinary (%),[5]; Day 28,(16.7%)
same,Subjects with abnormal findings on physical examination: Musculoskeletal (%),[5]; Day 28,(50.0%)
same,Subjects with abnormal findings on physical examination: Nose and throat (%),[5]; Day 28,(41.7%)
same,Subjects with abnormal findings on physical examination: Other (%),[5]; Day 28,(41.7%)
same,Subjects with abnormal findings on physical examination: Respiratory (%),[5]; Day 28,(8.3%)
same,Subjects with abnormal findings on physical examination: Skin (%),[5]; Day 28,(75.0%)
same,Number of AEs reported,[6],70
